Results: article PMC9410094 (Marine Drugs, 2022)
≈ marks a conversion by molar mass, not a printed value. Positions of bridges follow the written chain, without caps; N, C: chain ends. Residues, ends and D or L forms follow the SMILES beside them.

Experiments:
Gram-positive bacteria = assay type: cell-based; details: 24 h
Procedure: (§1) The antimicrobial activity of the peptides was determined via the method of two-fold serial dilutions in sterile 96-well flat-bottom polystyrene microplates (Eppendorf #0030730011) in Mueller–Hinton broth (MHB, Sigma, Kawasaki, Kanagawa, Japan) supplemented with 0.9% NaCl. Bacterial cultures were grown in MHB at 37 °C until the culture reached an optical density OD600 of 1.0 and diluted with the broth so that to reach a final cell concentration of 10^6 CFU/mL. Then 50 μL of the test culture were added to 50 μL of aqueous solutions of the peptides, previously diluted in 0.1% sterilized bovine serum albumin (BSA) to reduce non-specific binding of the peptides to the surface of the plates. Next, the plate was incubated for 24 h at 37 °C and 950 rpm on the plate thermoshaker (Biosan). The values of the minimum inhibitory concentrations (MIC) were determined as the minimum concentration of the peptide, at which there is no culture growth. The results were expressed as the median values of three independent experiments performed in triplicate.

[1] = RP-HPLC retention time as measure of hydrophobicity; assay type: physicochemical; details: chromatographic, semipreparative RP-HPLC, C18 column, linear gradient 5 to 80% (v/v) acetonitrile in water with 0.1% TFA within 50 minutes; used as measure of hydrophobicity
Procedure: Table S1. Characteristics of the recombinant AMPs.
1 Mean Kyte–Doolittle hydrophobicity index (GRAVY) was calculated using the Expasy ProtParam tool. The maximum and minimum values of this index are +4.5 and -4.5 for poly-Ile and poly-Arg sequences, respectively. 2 Retention times were measured using semipreparative reversed-phase high-performance liquid chromatography (RP - HPLC) on a C18 column with a linear gradient from 5 to 80% ( v/v) acetonitrile in water containing 0.1% trifluoroacetic […]
acid (TFA) within 50 minutes. […]

human red blood cells = assay type: cell-based
Procedure: Figure 4 (A) Hemolytic effect on human red blood cells after 2 h incubation (hemoglobin release assay). (B) Cytotoxicity toward transformed human embryonic kidney cells after 20 h incubation (MTT-assay). The positive control used was 0.1% Triton X-100 and sterile PBS as a negative control. Melittin was used as an additional positive control. The data are presented as the mean ± SD of three independent experiments.
The hemolytic activity of compounds was performed using human red blood cells (hRBS) of healthy donor. Fresh blood was centrifuged to separate the erythrocyte fraction for 15 min at 500 g and washed three times with cold phosphate-buffered saline (PBS) (pH 7.4), after which an 8% (v/v) suspension of erythrocytes in PBS was prepared. Then, 50 µL of erythrocyte suspension was added to the test peptides, previously were dissolved in 50 µL of 0.1% BSA. The plate was incubated for 1.5 h at 37 °C and 950 rpm on the plate thermoshaker. After incubation, the plates were centrifuged for 15 min at 1000 g to settle intact erythrocytes. Next, aliquots of the supernatant were transferred to another plate to measure the amount of hemoglobin release by the absorbance of the solution at 405 nm. As “zero lysis” we used the supernatant obtained after centrifugation of erythrocytes incubated in a PBS solution without the addition of a peptide. As “100% lysis”, we used the supernatant obtained after centrifugation of erythrocytes incubated in a 0.1% Triton X-100, causing their complete lysis. The assays were conducted three times. The quantitative data were presented as an average means with standard deviations. Hemolysis(%)=OD405(compound)−OD405(zerolysis)/OD405(100%lysis)−OD405(zerolysis)×100%

Gram-negative bacteria = assay: Geometric mean of MICs, Gram-negative panel; assay type: cell-based; details: geometric mean (GM) of MICs against the 14 Gram-negative strains of Figure 2
Procedure: as §1

Row | SMILES | Minimum inhibitory concentration (MIC): Gram-positive Geometric mean (Gram-positive bacteria) [µM] | RP-HPLC Retention Time [1] [min] | Hemolytic activity (in words) (human red blood cells) | Minimum inhibitory concentration (MIC): Gram-negative Geometric mean (Gram-negative bacteria) [µM]
1 | CC[C@H](C)[C@@H]1NC(=O)[C@H](CCCNC(=N)N)NC(=O)[C@H](C)NC(=O)CNC(=O)[C@H](CC(N)=O)NC(=O)[C@H](CCCNC(=N)N)NC(=O)[C@H](CC(C)C)NC(=O)[C@H](Cc2ccc(O)cc2)NC(=O)[C@@H]2CSSC[C@H](NC1=O)C(=O)N[C@@H](Cc1ccc(O)cc1)C(=O)N[C@@H](CCCNC(=N)N)C(=O)N[C@@H](CCCNC(=N)N)C(=O)N[C@H](C(=O)N[C@@H](CC(N)=O)C(=O)O)CSSC[C@H](NC(=O)[C@H](Cc1ccc(O)cc1)NC(=O)CN)C(=O)N[C@@H](Cc1ccccc1)C(=O)N[C@@H]([C@@H](C)O)C(=O)N[C@@H](C)C(=O)N2 [Ap5] (H-GYCFTACYLRNGARICYRRCN-OH; disulfide 3-20, 7-16) | 5.04 (≈ 12.6 µg/mL) | 25.53 |  | 
2 | CC[C@H](C)[C@@H]1NC(=O)[C@H](CCCNC(=N)N)NC(=O)[C@H](C(C)C)NC(=O)CNC(=O)[C@H](CC(N)=O)NC(=O)[C@H](CCCNC(=N)N)NC(=O)[C@H](C)NC(=O)[C@H](Cc2ccc(O)cc2)NC(=O)[C@@H]2CSSC[C@H](NC1=O)C(=O)N[C@@H](Cc1ccc(O)cc1)C(=O)N[C@@H](CCCNC(=N)N)C(=O)N[C@@H](CCCNC(=N)N)C(=O)N[C@H](C(=O)N[C@@H](CC(N)=O)C(=O)O)CSSC[C@H](NC(=O)[C@H](Cc1ccc(O)cc1)NC(=O)CN)C(=O)N[C@@H](Cc1ccccc1)C(=O)N[C@@H]([C@@H](C)O)C(=O)N[C@@H](C)C(=O)N2 [Ap3] (H-GYCFTACYARNGVRICYRRCN-OH; disulfide 3-20, 7-16) | 1 (≈ 2.49 µg/mL) | 25.47 | ability to lyse hRBCs is stronger | 
3 | CC[C@H](C)[C@@H]1NC(=O)[C@H](CCCNC(=N)N)NC(=O)[C@H](C(C)C)NC(=O)CNC(=O)[C@H](CC(N)=O)NC(=O)[C@H](CCCNC(=N)N)NC(=O)[C@H](CC(C)C)NC(=O)[C@H](CCCNC(=N)N)NC(=O)[C@@H]2CSSC[C@H](NC1=O)C(=O)N[C@@H](Cc1ccc(O)cc1)C(=O)N[C@@H](CCCNC(=N)N)C(=O)N[C@@H](CCCNC(=N)N)C(=O)N[C@H](C(=O)N[C@@H](CC(N)=O)C(=O)O)CSSC[C@H](NC(=O)[C@H](Cc1ccc(O)cc1)NC(=O)CN)C(=O)N[C@@H](Cc1ccccc1)C(=O)N[C@@H]([C@@H](C)O)C(=O)N[C@@H](C)C(=O)N2 [Ap2] (H-GYCFTACRLRNGVRICYRRCN-OH; disulfide 3-20, 7-16) | 12.7 (≈ 32 µg/mL) | 24.29 |  | 
4 | CC(C)C[C@@H]1NC(=O)[C@H](Cc2ccc(O)cc2)NC(=O)[C@@H]2CSSC[C@H](NC(=O)[C@H](C)NC(=O)[C@H](CCCNC(=N)N)NC(=O)[C@H](C(C)C)NC(=O)CNC(=O)[C@H](CC(N)=O)NC(=O)[C@H](CCCNC(=N)N)NC1=O)C(=O)N[C@@H](Cc1ccc(O)cc1)C(=O)N[C@@H](CCCNC(=N)N)C(=O)N[C@@H](CCCNC(=N)N)C(=O)N[C@H](C(=O)N[C@@H](CC(N)=O)C(=O)O)CSSC[C@H](NC(=O)[C@H](Cc1ccc(O)cc1)NC(=O)CN)C(=O)N[C@@H](Cc1ccccc1)C(=O)N[C@@H]([C@@H](C)O)C(=O)N[C@@H](C)C(=O)N2 [Ap7] (H-GYCFTACYLRNGVRACYRRCN-OH; disulfide 3-20, 7-16) | 8 (≈ 19.9 µg/mL) | 25.61 |  | 
5 | CC[C@H](C)[C@@H]1NC(=O)[C@H](CCCNC(=N)N)NC(=O)[C@H](C(C)C)NC(=O)CNC(=O)[C@H](CC(N)=O)NC(=O)[C@H](CCCNC(=N)N)NC(=O)[C@H](CC(C)C)NC(=O)[C@H](C)NC(=O)[C@@H]2CSSC[C@H](NC1=O)C(=O)N[C@@H](Cc1ccc(O)cc1)C(=O)N[C@@H](CCCNC(=N)N)C(=O)N[C@@H](CCCNC(=N)N)C(=O)N[C@H](C(=O)N[C@@H](CC(N)=O)C(=O)O)CSSC[C@H](NC(=O)[C@H](Cc1ccc(O)cc1)NC(=O)CN)C(=O)N[C@@H](Cc1ccccc1)C(=O)N[C@@H]([C@@H](C)O)C(=O)N[C@@H](C)C(=O)N2 [Ap1] (H-GYCFTACALRNGVRICYRRCN-OH; disulfide 3-20, 7-16) | 10.08 (≈ 24.6 µg/mL) | 26.05 |  | 
6 | CC[C@H](C)[C@@H]1NC(=O)[C@H](CCCNC(=N)N)NC(=O)[C@H](C)NC(=O)CNC(=O)[C@H](CC(N)=O)NC(=O)[C@H](CCCNC(=N)N)NC(=O)[C@H](CCCNC(=N)N)NC(=O)[C@H](Cc2ccc(O)cc2)NC(=O)[C@@H]2CSSC[C@H](NC1=O)C(=O)N[C@@H](Cc1ccc(O)cc1)C(=O)N[C@@H](CCCNC(=N)N)C(=O)N[C@@H](CCCNC(=N)N)C(=O)N[C@H](C(=O)N[C@@H](CC(N)=O)C(=O)O)CSSC[C@H](NC(=O)[C@H](Cc1ccc(O)cc1)NC(=O)CN)C(=O)N[C@@H](Cc1ccccc1)C(=O)N[C@@H]([C@@H](C)O)C(=O)N[C@@H](C)C(=O)N2 [Ap10] (H-GYCFTACYRRNGARICYRRCN-OH; disulfide 3-20, 7-16) | 2.52 (≈ 6.41 µg/mL) | 24.41 |  | 0.31 (≈ 0.788 µg/mL)
7 | CC[C@H](C)[C@@H]1NC(=O)[C@H](CCCNC(=N)N)NC(=O)[C@H](CCCNC(=N)N)NC(=O)CNC(=O)[C@H](CC(N)=O)NC(=O)[C@H](CCCNC(=N)N)NC(=O)[C@H](CC(C)C)NC(=O)[C@H](Cc2ccc(O)cc2)NC(=O)[C@@H]2CSSC[C@H](NC1=O)C(=O)N[C@@H](Cc1ccc(O)cc1)C(=O)N[C@@H](CCCNC(=N)N)C(=O)N[C@@H](CCCNC(=N)N)C(=O)N[C@H](C(=O)N[C@@H](CC(N)=O)C(=O)O)CSSC[C@H](NC(=O)[C@H](Cc1ccc(O)cc1)NC(=O)CN)C(=O)N[C@@H](Cc1ccccc1)C(=O)N[C@@H]([C@@H](C)O)C(=O)N[C@@H](C)C(=O)N2 [Ap6] (H-GYCFTACYLRNGRRICYRRCN-OH; disulfide 3-20, 7-16) | 6.35 (≈ 16.4 µg/mL) | 24.69 |  | 
8 | CC(C)C[C@@H]1NC(=O)[C@H](Cc2ccc(O)cc2)NC(=O)[C@@H]2CSSC[C@H](NC(=O)[C@H](CCCNC(=N)N)NC(=O)[C@H](CCCNC(=N)N)NC(=O)[C@H](C(C)C)NC(=O)CNC(=O)[C@H](CC(N)=O)NC(=O)[C@H](CCCNC(=N)N)NC1=O)C(=O)N[C@@H](Cc1ccc(O)cc1)C(=O)N[C@@H](CCCNC(=N)N)C(=O)N[C@@H](CCCNC(=N)N)C(=O)N[C@H](C(=O)N[C@@H](CC(N)=O)C(=O)O)CSSC[C@H](NC(=O)[C@H](Cc1ccc(O)cc1)NC(=O)CN)C(=O)N[C@@H](Cc1ccccc1)C(=O)N[C@@H]([C@@H](C)O)C(=O)N[C@@H](C)C(=O)N2 [Ap8] (H-GYCFTACYLRNGVRRCYRRCN-OH; disulfide 3-20, 7-16) | 16 (≈ 41.1 µg/mL) | 24.34 |  | 
